Results taken from patent publication US20130029964A1, “[5, 6] HETEROCYCLIC COMPOUND” (DAIICHI SANKYO COMPANY, LIMITED, priority 2010, published 2013).
Where a name gives a salt, the structure may show the parent alone.

Test system: ST2 cells, murine bone marrow-derived stromal cells
Assay: Osteoblast differentiation test (ALP activity)
Type: cell-based
Details: Mus musculus, ST-2, 96 h, at 0.1 μg/mL, control group (0.1% DMSO) = 100%, four days of culturing, read-out: alkaline phosphatase activity
Procedure: ST2 cells, murine bone marrow-derived stromal cells, (obtained from RIKEN) were used.
In this test, α-MEM media (obtained from GIBCO BRL Cat. No. 10370-021) containing 10% (v/v) of inactivated calf serum (obtained from Hyclone Laboratories, Inc.) and 1% (v/v) of Penicillin-Streptomycin Liquid (obtained from GIBCO BRL Cat. No. 15140-122) (hereinbelow, abbreviated as 10%-FBS-αMEM) were used. In this test, all culturing was performed in a CO2 incubator (37° C., 95% humidity, 5% CO2).
The aforementioned cells were detached with 2 mL of a 0.25% trypsin solution (obtained from GIBCO BRL Cat. No. 15050-065) and dispersed in 10 mL of 10%-FBS-αMEM. Subsequently, the cells were collected by centrifugation (25° C., 800 rpm, five minutes). Then, a cell suspension containing 40000 of the cells/mL of 10%-FBS-αMEM was prepared. The cell suspension was then dispensed into 96-well plates (the product of Falcon), 100 μL per well, at a density of 4000 cells/well, followed by culturing for 24 hours. To the wells, except for the below-described well containing a control group, the compound was dispensed at final concentrations of 0.01, 0.03, 0.1, and 0.3 μg/ml. To the well of a control group, DMSO was dispensed at a final concentration of 0.1% (v/v). After four days of culturing, the activity of alkaline phosphatase (ALP) was measured in each group.
The measurement of ALP activity was performed as follows. That is, the medium in each well of the culture plates was completely removed. Each well was then washed by dispensing 100 μL of Dulbecco's phosphate buffer (obtained from GIBCO BRL Cat. No. 14190-144) and then removing it. A cell lysate solution containing 10 mM MgCl2 and 2% (v/v) TritonX-100 (Sigma) was prepared and dispensed at 50 μL/well, followed by stirring at room temperature for five minutes. An ALP substrate solution containing 50 mM diethanolamine (Wako Pure Chemical Industries, Ltd., Cat. No. 099-03112) and 20 mM p-nitrophenyl phosphate (Wako Pure Chemical Industries, Ltd., Cat. No. 147-02343) was prepared and dispensed at 50 μL/well, and the plates were left to stand at room temperature for 10 minutes. Subsequently, absorbance was measured by a microplate reader (Bio-Rad Laboratories, Inc.). Setting the measurement value of the control group of each plate at 100%, alkaline phosphatase activity (increase (%)) in the test compound-addition group was calculated, which was assessed as the degree of osteoblast differentiation.

Row | Compound | activity at 0.1 µg/mL [%]
1 | c1ccn2c(-c3ccc(OCCOC4CCOCC4)cc3)cnc2c1 [Example 98] | ≥ 200
2 | O=C(COCCOc1ccc(-n2cnc3ccccc32)cc1)N1CCOCC1 [Example 56] | ≥ 200
3 | Cn1cc(-c2ccn3c(N4CCC(OCCOC5CCOCC5)CC4)cnc3c2)cn1 [Example 104] | ≥ 200
4 | CN(C)C(=O)c1ccc(-c2ccn3c(N4CCC(OCCO)CC4)cnc3c2)cc1 [Example 107] | ≥ 200
5 | Fc1ccc2ncc(-c3ccc(NCCOC4CCOCC4)cc3)n2c1 [Example 111] | ≥ 200
6 | FC(F)Oc1ccc2ncn(-c3ccc(OCCOC[C@H]4COCCO4)cc3)c2c1 [Example 95] | ≥ 200
7 | COc1ccn2ncc(-c3ccc(OCCO)cc3)c2c1 [Example 120] | ≥ 200
8 | OC1COCC1OCCOc1ccc(-n2cnc3ccc(OC(F)F)cc32)cc1 (stereo not shown) [Example 96] | ≥ 200
9 | Clc1ccc2ncc(-c3ccc(OCCOC4CCOCC4)cc3)n2c1 [Example 131] | ≥ 200
10 | c1cc(-c2ccn3c(-c4ccc(OCCOC5CCOCC5)cc4)cnc3c2)ccn1 [Example 74] | ≥ 200
11 | CS(=O)(=O)N1CCC(OCCOc2ccc(-n3cnc4ccccc43)cc2)CC1 [Example 45] | ≥ 200
12 | CN(C)S(=O)(=O)c1ccc(-c2ccn3c(-c4ccc(OCCO)cc4)cnc3c2)cc1 [Example 134] | ≥ 200
13 | OCCNc1ccc(-n2cnc3ccc(Cl)cc32)cc1 [Example 4, 2-{[4-(6-Chloro-1H-benzimidazol-1-yl)phenyl]amino}ethanol hydrochloride] | ≥ 200
14 | FC(F)Oc1ccc2ncn(-c3ccc(OCCOC4CCOCC4)cc3)c2c1 [Example 25, 6-(Difluoromethoxy)-1-{4-[2-(tetrahydro-2H-pyran-4-yloxy)ethoxy]phenyl}-1H-benzimidazole hydrochloride] | ≥ 200
15 | CCOc1ccn2c(-c3ccc(OCCO)cc3)cnc2c1 [Example 34] | ≥ 200
16 | CCOc1ccc2c(c1)ncn2-c1ccc(OCCO)cc1 [Example 30] | ≥ 200
17 | Fc1ccc2ncc(-c3ccc(OCCOC4CCOCC4)cc3)n2c1 [Example 144] | ≥ 200
18 | OCCOc1ccc(-c2cnc3cc(-c4ccncc4)ccn23)cc1 [Example 72] | ≥ 200
19 | Cn1ccc(-c2ccn3c(-c4ccc(OCCO)cc4)cnc3c2)c1 [Example 67] | ≥ 200
20 | COCCOCCOc1ccc(-c2cnc3ccc(F)cn23)cc1 [Example 81] | ≥ 200
21 | O=C(c1ccc(-c2ccn3c(N4CCC(OCCO)CC4)cnc3c2)cc1)N1CCOCC1 [Example 103] | ≥ 200

Row | Compound | activity at 0.1 µg/mL [%]
22 | OCCOCCNc1ccc(-n2cnc3ccccc32)cc1 [Example 3, 2-(2-{[4-(1H-Benzimidazol-1-yl)phenyl]amino}ethoxy)ethanol] | ≥ 200
23 | OCCOc1ccc(-c2cnc3ccc(F)cn23)cc1 [Example 7, 2-[4-(6-Fluoroimidazo[1,2-a]pyridin-3-yl)phenoxy]ethanol] | ≥ 200
24 | CC(=O)N1CC=C(c2ccc3c(c2)ncn3-c2ccc(OCCO)cc2)CC1 [Example 60] | ≥ 200
25 | OCCOc1ccc(-n2cnc3cc(-c4cn[nH]c4)ccc32)cc1 [Example 54] | ≥ 200
26 | O=C(C1CC1)N1CCC(OCCOC2CCN(c3cnc4ccc(-c5ccncc5)cn34)CC2)CC1 [Example 140] | ≥ 200
27 | COc1ccc2c(c1)ncn2-c1ccc(OCCO)cc1 [Example 27] | ≥ 200
28 | COc1ccc2c(c1)ncn2-c1ccc(NCCO)cc1 [Example 5, 2-{[4-(5-Methoxy-1H-benzimidazol-1-yl)phenyl]amino}ethanol hydrochloride] | ≥ 200
29 | COc1ccc2c(-c3ccc(OCCO)cc3)cnn2c1 [Example 125] | ≥ 200
30 | OCCOc1ccc(-n2cnc3cc(N4CCOCC4)ccc32)cc1 [Example 36] | ≥ 200
31 | O=C(O)c1ccc(OCCOc2ccc(-n3cnc4ccccc43)cc2)cc1 [Example 12, 4-{2-[4-(1H-Benzimidazol-1-yl)phenoxy]ethoxy}benzoic acid hydrochloride] | ≥ 200
32 | c1coc(-c2ccc3ncc(-c4ccc(OCCOC5CCOCC5)cc4)n3c2)n1 [Example 150] | ≥ 200
33 | CC(=O)N1CCN(c2ccc3c(c2)ncn3-c2ccc(OCCO)cc2)CC1 [Example 40] | ≥ 200
34 | O=C(C1CC1)N1CCC(OCCOC2CCN(c3cnc4ccc(Cl)cn34)CC2)CC1 [Example 138] | ≥ 200
35 | OCCOc1ccc(-c2cnn3cc(-c4ccncc4)ccc23)cc1 [Example 11, 2-[4-(6-Pyridin-4-ylpyrazolo[1,5-a]pyridin-3-yl)phenoxy]ethanol] | ≥ 200
36 | OCCOc1ccc(-n2cnc3ccc(F)cc32)cc1 [Example 47] | ≥ 200
37 | CN(C)C(=O)c1cccc(-c2ccn3c(-c4ccc(OCCO)cc4)cnc3c2)c1 [Example 106] | ≥ 200
38 | O=C(c1ccc(-c2ccc3c(c2)ncn3-c2ccc(OCCO)cc2)nc1)N1CCOCC1 [Example 130] | ≥ 200
39 | COC1COCC1OCCOc1ccc(-c2cnc3ccc(F)cn23)cc1 (stereo not shown) [Example 84] | ≥ 200
40 | CC(=O)N1CC=C(c2ccn3c(-c4ccc(OCCO)cc4)cnc3c2)CC1 [Example 66] | ≥ 200
41 | OCCOc1ccc(-c2cnc3ccc(-c4ccncc4)cn23)cc1 [Example 71] | ≥ 200
42 | CS(=O)(=O)c1ccc(-c2ccc3c(c2)ncn3-c2ccc(OCCO)cc2)cn1 [Example 129] | ≥ 200

Row | Compound | activity at 0.1 µg/mL [%]
43 | CC(=O)Nc1ccc(-c2ccc3c(c2)ncn3-c2ccc(OCCO)cc2)cc1 [Example 14, N-(4-{1-[4-(2-Hydroxyethoxy)phenyl]-1H-benzimidazol-5-yl}phenyl)acetamide] | ≥ 200
44 | OCCOc1ccc(-n2cnc3cc(-c4nccs4)ccc32)cc1 [Example 64] | ≥ 200
45 | OCCOc1ccc(-c2cnc3ccc(Cl)cn23)cc1 [Example 116] | ≥ 200
46 | OCCOc1ccc(-n2cnc3cc4c(cc32)OCCO4)cc1 [Example 35] | ≥ 200
47 | N#Cc1ccc2ncn(-c3ccc(OCCOC[C@H]4COCCO4)cc3)c2c1 [Example 92] | ≥ 200
48 | CS(=O)(=O)N1CCN(c2ccc3c(c2)ncn3-c2ccc(OCCO)cc2)CC1 [Example 59] | ≥ 200
49 | OC1COCC1OCCOc1ccc(-c2cnc3ccc(F)cn23)cc1 (stereo not shown) [Example 86] | ≥ 200
50 | Fc1ccc2ncc(-c3ccc(OCCOCCOC4CCOCC4)cc3)n2c1 [Example 82] | ≥ 200
51 | N#Cc1ccn2c(-c3ccc(OCCO)cc3)cnc2c1 [Example 75] | ≥ 200
52 | O=C(c1ccc(-c2ccn3c(-c4ccc(OCCO)cc4)cnc3c2)cc1)N1CCOCC1 [Example 102] | ≥ 200
53 | OCCNc1ccc(-c2cnc3ccc(Cl)cn23)cc1 [Example 118] | ≥ 200
54 | OCCNc1ccc(-n2cnc3ccccc32)cc1 [Example 97] | ≥ 200
55 | C#Cc1ccc2ncc(-c3ccc(OCCOC4CCOCC4)cc3)n2c1 [Example 21, 6-Ethynyl-3-{4-[2-(tetrahydro-2H-pyran-4-yloxy)ethoxy]phenyl}imidazo[1,2-a]pyridine] | ≥ 200
56 | OCCOc1ccc(-c2cnc3ccc(-c4cc[nH]c4)cn23)cc1 [Example 8, 2-{4-[6-(1H-Pyrrol-3-yl)imidazo[1,2-a]pyridin-3-yl]phenoxy}ethanol] | ≥ 200
57 | c1cn(-c2ccc3ncc(-c4ccc(OCCOC5CCOCC5)cc4)n3c2)cn1 [Example 112] | ≥ 200
58 | NS(=O)(=O)c1ccc(-c2ccc3c(c2)ncn3-c2ccc(OCCO)cc2)cc1 [Example 52] | ≥ 200
59 | Clc1ccn2c(N3CCC(OCCOC4CCOCC4)CC3)cnc2c1 [Example 139] | ≥ 200
60 | O=C(c1ccc(-c2ccc3c(c2)ncn3-c2ccc(OCCO)cc2)cn1)N1CCOCC1 [Example 16, 2-(4-{5-[6-(Morpholin-4-ylcarbonyl)pyridin-3-yl]-1H-benzimidazol-1-yl}phenoxy)ethanol] | ≥ 200
61 | NC(=O)c1ccc2ncc(-c3ccc(OCCOC4CCOCC4)cc3)n2c1 [Example 19, 3-{4-[2-(Tetrahydro-2H-pyran-4-yloxy)ethoxy]phenyl}imidazo[1,2-a]pyridine-6-carboxamide] | ≥ 200
